Experimental findings from ChEMBL document CHEMBL4138146, “A Schmidt rearrangement-mediated synthesis of novel tetrahydro-benzo[1,4]diazepin-5-ones as potential anticancer and antiprotozoal agents” (Eur J Med Chem, 2017) are described below.

One may read the EC50 as the concentration that produces a half-maximal response. Read a low EC50 as higher potency in that assay.

In one experiment the test system is U-937. Put plainly: Cytotoxicity against human U937 cells after 72 hrs by MTT assay. It is filed as functional. Particulars: U-937, 72 h, read-out: LC50 (the source's name). (Tetrazolium dyes change colour on reduction, which living cells bring about.)
For another experiment, the system named is Plasmodium falciparum. The experiment in a line: Antimalarial activity against chloroquine-sensitive Plasmodium falciparum 3D7 incubated for 48 hrs by malstat reagent based LDH release assay. It is filed as functional, organism-based. Particulars: 3D7, 48 h. On the technique in general: Release of lactate dehydrogenase indicates damage to the cell membrane.

A further experiment relates to Leishmania panamensis. Put plainly: Antileishmanial activity against EpiR/GFP fused Leishmania panamensis MHOM/CO/87/UA140 intracellular amastigotes infected in human […] cells after 72 hrs by flow cytometric method. It is filed as functional, organism-based. Particulars: MHOM/CO/87/UA140, 72 h. On the technique in general: A flow cytometer gives signals particle by particle.

Another experiment relates to Trypanosoma cruzi. The experiment in a line: Antitrypanosomal activity against Trypanosoma cruzi Tulahuen amastigote forms infected in human U937 cells after 72 hrs by beta-galactosidase reporter gene assay. The note with it: U-937, 72 h. The class given is functional, organism-based.

The structures appear in SMILES notation. ≈ marks a conversion by molar mass, not a printed value. Bounds are passed on as bounds.

Consider `CCCCOc1nc2ccc(Br)cc2cc1C1CNC(=O)c2ccccc2N1` (configuration not stated), for which the CC50 with U-937 is greater than 200 µg/mL. Also, the EC50 with Plasmodium falciparum stood at 50.8 µg/mL (≈ 115 µM); in the experiment on Leishmania panamensis, 34.2 µg/mL (≈ 77.6 µM).
With `C[C@@H]1[C@H](O)[C@@H](C)/C=C/C=C/C=C/C=C/C=C/C=C/C=C/[C@H](O[C@@H]2O[C@H](C)[C@@H](O)[C@H](N)[C@@H]2O)C[C@@H]2O[C@](O)(C[C@@H](O)C[C@@H](O)[C@H](O)CC[C@@H](O)C[C@@H](O)CC(=O)O[C@H]1C)C[C@H](O)[C@H]2C(=O)O` [AMPHOTERICIN B], the CC50 in the experiment on U-937 is 36 µg/mL (≈ 39 µM).
Take `O=C1NCC(c2cc3cc(Cl)ccc3[nH]c2=O)Nc2ccccc21` (configuration not stated): the CC50 in the experiment with U-937 amounted to 192 µg/mL (≈ 566 µM). Also, the results for the EC50 in the experiment with Plasmodium falciparum, in the experiment on Trypanosoma cruzi and in the experiment with Leishmania panamensis were 43.2 µg/mL (≈ 127 µM), 123 µg/mL (≈ 361 µM) and 19.4 µg/mL (≈ 57.2 µM), respectively.
Take `O=C(Cn1ccnc1[N+](=O)[O-])NCc1ccccc1` [BENZNIDAZOLE]: in the experiment with U-937, the CC50 came out at 180 µg/mL (≈ 692 µM).
With `O=C1NCC(c2cc3cc(Br)ccc3[nH]c2=O)Nc2ccccc21` (configuration not stated), the CC50 in the experiment with U-937 was 57 µg/mL (≈ 148 µM). For the same molecule, the EC50 in the experiment with Plasmodium falciparum is 13.6 µg/mL (≈ 35.4 µM); in the experiment with Leishmania panamensis it was 15.3 µg/mL (≈ 39.7 µM).
